Assays:
Type in all cases: cell-based
[1] = tested on: Notch signaling (human Notch1 receptor, hNotch1ΔE, CSL luciferase reporter in HeLa cells); test: Notch reporter assay (dual luciferase, HeLa cells transfected with hNotch1ΔE); settings: compounds and controls at 10 μM
Source text: The activation level of Notch signaling can be quantified in vitro reliably by measuring the expression levels of Notch specific target genes. This can be accomplished by the quantification of corresponding mRNA or protein of a particular Notch target gene. Alternatively, cells can be genetically modified to carry a luciferase gene as an artificial Notch target gene, which is expressed in dependence of Notch activity. In this setting, Notch signaling levels can be quantified by measuring the luciferase-derived bioluminescence values.
An according Notch-reporter assay, i.e. a luciferase-based luminescence readout, was used here to quantify the ability of the claimed compounds to augment Notch signaling in a cellular system. […] After 24 hours of transfection, the transfected cells were carefully detached from the dish using 0.5 mM EDTA in PBS and seeded into 96-well plates suitable for luminescence readouts (CORNING, #3610) at 10′000 cells per well. […] Directly after the lysis, first the Firefly and then the Renilla luciferase values were measured consecutively from the same well with a luminescence reader immediately after applying 15 μL per well each of the corresponding enzyme substrates needed to create the luminescence signals (Promega, Dual-Luciferase® Reporter Assay System, #E1910). […]

[2] = tested on: TANOUE cells (human B cell leukemia cells); test: Proliferation assay (alamarBlue) with TANOUE cells; settings: Homo sapiens, B-cell, compound at 20 μM, Table 63 (novel compounds), read-out: Activity Range: weighted arithmetic mean (AVEw) of normalized fluorescence intensity relative to DMSO basis level 1.0
Source text: (§1) The antiproliferative activities of compounds falling under formula (Ia), (Ib) and (Ic), respectively, were investigated on cells or cell lines originating from a disorder of the haematopoietic system, including the myeloid cell compartment and the lymphoid cell compartment (T-cells and B-cells), the neuroendocrine system, the cervix, the breast, the ovaries, the lung, the gastrointestinal tract, and the mucosal epithelium, as well as from the skin epithelium and from the muscle. To this end, HL-60 cells, NB-4 cells, HH cells, RPMI-8402 cells, TANOUE cells, TT cells, HeLa cells, MDA-MB-231 cells, FU-OV-1 cells, LOU-NH91 cells, 23132/87 cells, CAL-27 cells, BHY cells, SCC-25 cells, A-431 cells, human primary epidermal keratinocytes (HPEK), and C2C12 cells were seeded into 96-well plates suitable for fluorescence assays (CORNING #3598) at following initial cell numbers: 1000 cells per well for HL-60; 1000 cells per well for NB-4; 5000 cells per well for HH; 5000 cells per well for RPMI-8402; 1500 cells per well for TANOUE; 9000 cells per well for TT; 2000 cells per well for HeLa; 3000 cells per well for MDA-MB-231; 3000 cells per well for FU-OV-1; 4000 cells per well for LOU-NH91; 2000 cells per well for 23132/87; 2000 cells per well for CAL-27; 1500 cells per well for BHY; 1500 cells per well for SCC-25; 700 cells per well for A-431; 1000 cells per well for HPEK; 500 cells per well for C2C12. The cells were treated with compounds at indicated final concentrations (diluted from the 1000× stock-solutions in DMSO to a final DMSO concentration of 0.1% v/v in H2O (Water For Injection, WFI, Fisherscientific #10378939)) or with the empty carrier DMSO at 0.1% v/v as control for 5 days. At day 5 after starting the treatments the cells were subjected to the alamarBlue® Proliferation Assay (Bio-Rad Serotec GmbH, BUF012B) according to the protocol of the manufacturer. The readout was taken with a multi-well plate-reader in the fluorescence mode with applying a filter for excitation at 560 nm (band width 10 nm) and for emission at 590 nm (band width 10 nm). Control treatments for growth inhibition with commercial compounds such as Methotrexate (MTREX) and Resveratrol (RES) were included on every plate. Some of the test compounds of the present invention were obtained and applied as their salts. According cases are indicated in the column “Specification” in Table 55 to Table 92 and by their sum formula in Table 93.
(§2) The assays were performed in duplicate or more replicates of independent single experiments each containing a six-fold replicate for every condition. For every individual plate, the measured fluorescence intensity values of the conditions with compound treatment were normalized against the corresponding equally weighted arithmetic mean of the fluorescence intensity values of the six DMSO treated control wells in order to obtain the relative values to a baseline level of 1.0.
(§3) Two independent outlier analyses were performed according to the methods by Peirce and Chauvenet (Ross, Journal of Engineering Technology 2003, 1-12). Outliers confirmed by at least one of the methods were excluded from the calculations but not more than one value out of six per compound within a single experiment. The weighted arithmetic mean (here abbreviated as AVEw) for each compound was calculated from the normalized values over all independent replicates of the single experiments comprising the six replicates each. The corresponding standard deviation for the weighted arithmetic mean was calculated according to the method described by Bronstein et al. (Bronstein, Semendjajew, Musiol, Müihlig, Taschenbuch der Mathematik, 5th edition 2001 (German), publisher: Verlag Harri Deutsch, Frankfurt am Main and Thun) and was combined with the Gauß' error propagation associated with the performed calculation for the normalization. The resulting standard deviation is herein referred to as “combined standard deviation”. […]

[3] = tested on: MDA-MB-231 cells (human breast carcinoma cells); test: Proliferation assay (alamarBlue) with MDA-MB-231 cells; settings: Homo sapiens, compound at 20 μM, Table 69 (novel compounds), read-out: Activity Range: weighted arithmetic mean (AVEw) of normalized fluorescence intensity relative to DMSO basis level 1.0
Source text: as §1, §2, §3

[4] = tested on: HH cells (human cutaneous T-cell lymphoma cells); test: Proliferation assay (alamarBlue) with HH cells; settings: 20 μM, relative to DMSO basis level 1.0, Table 60 (compounds disclosed in PCT/EP2018/054686)
Source text: as §1, §2, §3

SMILES	Activity Range: weighted arithmetic mean (AVEw) of double-normalized Notch-reporter luminescence, relative to DMSO basis level of 1.0 [1]	activity at 20 µM [2]	activity at 20 µM [3]	Activity Range: weighted arithmetic mean (AVEw) of normalized fluorescence intensity, proliferation assay with HH cells [4]
C[C@H](NC(=O)Cc1cc(F)cc(F)c1)C(=O)N[C@H](C(=O)OC(C)(C)C)c1ccccc1 [DAPT]	0.1 ± 0.0			
COCCc1ccc(Oc2ccc(C(=O)N(C)O)cc2)cc1 [XPW-0675, N-hydroxy-4-(4-(2-methoxyethyl)phenoxy)-N-methylbenzamide]		40 to 60%	40 to 60%	
NS(=O)(=O)C#Cc1ccccc1 [PES]				0.6 ± 0.1
CC(C)(C)[S+]([O-])NC(c1ccc(Oc2ccc(C34CC5CC(CC(C5)C3)C4)cc2)cc1)C(F)(F)F (stereo not shown) [XPW-0902, N-(1-(4-(4-((3r,5r,7r)-adamantan-1-yl)phenoxy)phenyl)-2,2,2-trifluoroethyl)-2-methylpropane-2-sulfinamide]		0 to 20%	0 to 20%	
NC1(c2ccc(Oc3ccc(C45CC6CC(CC(C6)C4)C5)cc3)nc2)COC1 [XPW-3052]		70 to 80%	60 to 70%	
CN(O)C(c1ccc(Oc2ccc(C34CC5CC(CC(C5)C3)C4)cc2)cc1)C(F)(F)F (stereo not shown) [XPW-0182, N-(1-(4-(4-((3r,5r,7r)-adamantan-1-yl)phenoxy)phenyl)-2,2,2-trifluoroethyl)-N-methyl hydroxylamine]		40 to 60%	40 to 60%	
CN(C)C(c1ccc(Oc2ccc(C34CC5CC(CC(C5)C3)C4)cc2)cc1)C(F)(F)F (stereo not shown) [XPW-0042, 1-(4-(4-((3r,5r,7r)-adamantan-1-yl)phenoxy)phenyl)-2,2,2-trifluoro-N,N-dimethylethan-1-amine]		80 to 90%	80 to 90%	
CN(C(c1ccc(Oc2ccc(C34CC5CC(CC(C5)C3)C4)cc2)cc1)C(F)(F)F)[S+]([O-])C(C)(C)C (stereo not shown) [XPW-4642, N-(1-(4-(4-((3r,5r,7r)-adamantan-1-yl)phenoxy)phenyl)-2,2,2-trifluoroethyl)-N,2-dimethylpropane-2-sulfinamide]			60 to 70%	
O=C(c1ccc(Oc2ccc(C3CCCCC3)cc2)nc1)N1CCOCC1 [XPW-2890, (6-(4-cyclohexylphenoxy)pyridin-3-yl)(morpholino)methanone]		70 to 80%	40 to 60%	
CN(C)C(C#N)c1ccc(Oc2ccc(C3CCCCC3)cc2)cc1 (stereo not shown) [XPW-0314, 2-(4-(4-cyclohexylphenoxy)phenyl)-2-(dimethylamino)acetonitrile]	2.0 ≤ AVEw	40 to 60%		
N#CN=C(N)c1ccc(Oc2ccc(C3CCCCC3)cc2)nc1 [XPW-0832, N′-cyano-6-(4-cyclohexylphenoxy)nicotinimidamide]		70 to 80%	70 to 80%	
